Several values for one entry are separate records, joined by “and”; a condition that tells them apart may be missing. Equal values may be shown once.

The nature of this experiment: TarO Biochemical Enzymatic Assay: The TarO biochemical enzymatic assay is a liquid chromatography-mass spectroscopy (LC-MS) based end point assay that measures C55-P-P-GlcNAc (LIPID III) production. The TarO biochemical enzymatic assay was performed in a 384-well microtiter plate (Labcyte) with a reaction volume of 20 μl. The reaction mix contained 0.1 μgs/μl of TarO membrane preparation derived from MRSA COL (lysostaphin/lysozyme treated, centrifuged at 40K rpm, and re-suspended in 50 mM Tris pH 7.5, 10 mM MgCl2), 1500 μM UDP-GlcNAc, ×75 μM C55-P substrates in 83 mM Tris pH 8.0, 6.7 mM MgCl2, 6 mM CHAPS, and 8.3% DMSO buffer. The enzyme reactions were quenched by extraction in 40 μl of 1-pentanol containing 0.04 μM 15C C55-PP-GlcNAc, which was used as an internal standard. A 10 μl volume of the quenched reaction mixture (pH≈3) from each well was injected onto a reversed-phase column (C4, 5 μm, 2.1×50 mm, Thermo Scientific Biobacis-4) and eluted using a NH4Ac/H2O/MeOH gradient (solvent A: 10 mM NH4Ac in water, pH 5.6; solvent B: NH4Ac (1 M)-Isopropanol (1:90, v/v, pH 5.6). The HPLC conditions were as follows: 15% solvent B for 15 seconds followed by a gradient to 90% solvent B in 90 seconds; then solvent B was kept at 95% for 10 seconds followed by a gradient to 8% solvent B in 0.1 minute. The column was then equilibrated at 15% B for 1 minute before the next injection. The flow rate was kept constant at 600 μl/minute. Mass spectrometric detection was carried out in the negative-ion mode using selected reaction monitoring (SRM). Typical mass spectrometric conditions were as follows: heated capillary temperature, 210° C.; spray voltage, 2500 V; desolvation gas (N2), 40 l/h; auxiliary gas (N2), 35 l/h. Selected ion current (SIC) chromatograms of C55-PP-GlcNAc and internal standard 15C C55-PP-GlcNAc were plotted and integrated using LCQuan incorporated in Xcalibur software (ThermoFinnigan). The linearity of C55-PP-GlcNAc concentration versus mass spectrometric signal (AC55-PP-GlcNAc/A15C-C55-PP-GlcNAc) was determined with purified C55-PP-GlcNAc. The IC50 values were calculated using the nonlinear regression analysis (sigmoidal dose response fit allowing for a variable slope) of percent inhibition data with minimum and maximum values set to 0 and 100 percent.
Take `CCC1CCN(Cc2nc3ccccc3n2CCC(=O)N(CC)C2CCCCC2)CC1`: the half-maximal inhibitory concentration (IC50) was 210 nM.

Turning to `CCN(C(=O)CCn1c2cc(Br)ccc2nc1[C@H]1CC[C@H](CC)CC1)C1CCCCC1`, the IC50 was 30 nM. For `CC(C)(C)OC(=O)N1CCC(c2nc3ccccc3n2CCC(=O)NC2C[C@H]3CC[C@]2(C)C3(C)C)C1` (some centres undefined) the value was 3400 nM; for `CCN(C(=O)CCn1c2cccc(C[C@H]3CCOC3)c2nc1[C@H]1CC[C@H](CC)CC1)C1CCCCC1`, 520 nM.

With `CCN(C(=O)CCn1c2ccc(F)cc2nc1[C@H]1CC[C@H](CC)CC1)C1CCCCC1`, the IC50 was 40 nM. For `CCN(C(=O)CCn1c(CN2CCC(C(C)(C)C)CC2)nc2ccccc21)C1CCCCC1` the value was 100 nM; for `CCN(C(=O)CCn1c2ncccc2nc1[C@H]1CC[C@H](CC)CC1)C1CCCCC1`, 300 nM; for `CCOC(=O)N1CCCC(c2nc3ccc(F)cc3n2CCC(=O)N(CC)C2CCCCC2)C1` (centres undefined), 1090 nM. For `CCc1nsc(N2CCCC(c3nc4ccccc4n3CCC(=O)N(CC)C3CCCCC3)C2)n1` (centres undefined), the 50% inhibitory concentration (IC50) is 80 nM.

On to `CCN(C(=O)CCn1c2ccc(C3CC3)cc2nc1[C@H]1CC[C@H](CC)CC1)C1CCCCC1`, for which the IC50 was 130 nM. For the molecule `CCN(C(=O)CCn1c2cccnc2nc1[C@H]1CC[C@H](CC)CC1)C1CCCCC1`, the IC50 was 660 nM. In the case of `CCN(C(=O)CCn1c2cc(C#N)ccc2nc1[C@H]1CC[C@H](CC)CC1)C1CCCCC1`, the 50% inhibitory concentration (IC50) is 790 nM. For `CCN(C(=O)CCn1c2cc(CN3CC(F)(F)C3)ccc2nc1[C@H]1CC[C@H](CC)CC1)C1CCCCC1` the value was 1770 nM.

In the case of `CCN(C(=O)CCn1c(-c2ccc(C(=O)OC)cc2)nc2ccccc21)C1CCCCC1`, the IC50 is 130 nM.

Turning to `CCN(C(=O)CCn1c(C2CCCN(c3nccc(OC)n3)C2)nc2ccccc21)C1CCCCC1` (centres undefined), the half-inhibitory concentration (IC50) is 80 nM.

In the case of `CCN(C(=O)CCn1c(N2CCC[C@H](NC(=O)OC(C)(C)C)C2)nc2ccccc21)C1CCCCC1`, the IC50 is 7990 nM. For `CCN(C(=O)CCn1c2cc(CN)ccc2nc1[C@H]1CC[C@H](CC)CC1)C1CCCCC1` the value was 7320 nM; for `CC1(C)[C@@H]2CC[C@@]1(C)[C@H](NC(=O)CCn1c(C3CCCCC3)nc3ccccc31)C2`, 200 nM; for `CCN(C(=O)CCn1c2ccncc2nc1[C@H]1CC[C@H](CC)CC1)C1CCCCC1`, 150 nM.

Take `CC1CCN(C(=O)CCn2c(C3CCCCC3)nc3ccccc32)CC1`: the IC50 is 2340 nM. For `CCN(C(=O)CCn1c(C2CCC(C)N(c3cccc(OC)n3)C2)nc2ccccc21)C1CCCCC1` (centres undefined) the value was 20 nM. For `CCN(C(=O)CCn1c2cc(-c3cnn(C)c3)ccc2nc1[C@H]1CC[C@H](CC)CC1)C1CCCCC1` the value was 50 nM; for `CCN(C(=O)CCn1c(-c2ccc(-n3ccnn3)cc2)nc2ccccc21)C1CCCCC1`, 3770 nM. For `CCN(C(=O)CCn1c(C2CCCN(c3cccc(OC)n3)C2)nc2ccccc21)C1CCCCC1` (centres undefined) the value was 10 nM; for `CCN(C(=O)CCn1c(C2CCCN(c3ccccn3)C2)nc2ccccc21)C1CCCCC1` (centres undefined), 90 nM; for `CCN(C(=O)CCn1c2cc(CN3CCN(CC(F)(F)F)CC3)ccc2nc1[C@H]1CC[C@H](CC)CC1)C1CCCCC1`, 1480 nM.

`CCN(C(=O)CCn1c2c(F)cccc2nc1[C@H]1CC[C@H](CC)CC1)C1CCCCC1`: the half-inhibitory concentration (IC50) was 40 nM. For `CCN(C(=O)CCn1c2ccc(CO)cc2nc1[C@H]1CC[C@H](CC)CC1)C1CCCCC1` the value was 770 nM. For `CCN(C(=O)CCn1c2ccc(C(F)(F)F)cc2nc1[C@H]1CC[C@H](CC)CC1)C1CCCCC1` the value was 10 nM; for `CCN(C(=O)CCn1c2ccc(OC)cc2nc1[C@H]1CC[C@H](CC)CC1)C1CCCCC1`, 150 nM; for `CCCOC(=O)N1CC(c2nc3ccccc3n2CCC(=O)N(CC)C2CCCCC2)CCC1C` (centres undefined), 110 nM. For `CCN(C(=O)CCn1c(C2CCCN(C(=O)OC(C)C)C2)nc2ccccc21)C1CCCCC1` (centres undefined) the value was 260 nM; for `CCN(C(=O)CCn1c(N2CCC(C)CC2)nc2ccccc21)C1CCCCC1`, 210 nM. For the molecule `CCN(C(=O)CCn1c2cccc(N3CCOCC3)c2nc1[C@H]1CC[C@H](CC)CC1)C1CCCCC1`, the concentration for half-maximal inhibition (IC50) is 3440 nM. For `CCN(C(=O)CCn1c(C2CCCCC2)nc2ccccc21)C1CCCCC1` the value was 70 nM. For `CCCCOC(=O)N1CCCC(c2nc3ccccc3n2CCC(=O)N(CC)C2CCCCC2)C1` (centres undefined) the value was 70 nM. For `CCN(C(=O)CCn1c(N2CCC(F)(F)CC2)nc2ccccc21)C1CCCCC1` the value was 220 nM; for `CN(C(=O)CCn1c(C2CCCCC2)nc2ccccc21)C1CCCCC1`, 280 nM. On to `CCN(C(=O)CCn1c(N2CCC(C(C)(C)C)CC2)nc2ccccc21)C1CCCCC1`, for which the IC50 is 10 nM. For `CCN(C(=O)CCn1c2cccc(C(F)F)c2nc1[C@H]1CC[C@H](C)CC1)C1CCCCC1` the value was 360 nM. For `CCC1CCN(Cc2nc3cc(C)ccc3n2CCC(=O)N(CC)C2CCCCC2)CC1` the value was 1050 nM. For `CCN(C(=O)CCn1c(N2CCC(C(F)F)CC2)nc2ccccc21)C1CCCCC1` the value was 170 nM; for `CCOc1ccc(-c2nc3ccccc3n2CCC(=O)N(CC)C2CCCCC2)cn1`, 240 nM. For the molecule `CCN(C(=O)CCn1c(C2CCCN(c3nccc(C)n3)C2)nc2ccccc21)C1CCCCC1` (centres undefined), the half-maximal inhibitory concentration (IC50) is 230 nM.

For the molecule `CCN(C(=O)CCn1c2cnccc2nc1[C@H]1CC[C@H](CC)CC1)C1CCCCC1`, the IC50 was 840 nM.

With `CC1(C)[C@@H]2CC[C@@]1(C)[C@H](NC(=O)CCn1c3ccccc3nc1[C@H]1CC[C@@H](C(C)(C)C)CC1)C2`, the IC50 was 60 nM. For `CCN(C(=O)CCn1c(C2CCC(C)N(c3nccc(OC)n3)C2)nc2ccccc21)C1CCCCC1` (centres undefined) the value was 140 nM; for `CCN(C(=O)CCn1c2ccc(C#N)cc2nc1[C@H]1CC[C@H](CC)CC1)C1CCCCC1`, 420 nM; for `CCN(C(=O)CCn1c2cccc(F)c2nc1[C@H]1CC[C@H](CC)CC1)C1CCCCC1`, 30 nM. For `CCOC(=O)N1CCCC(c2nc3cc(F)ccc3n2CCC(=O)N(CC)C2CCCCC2)C1` (centres undefined) the value was 110 nM and 290 nM; for `CCN(C(=O)CCn1c(C2CCN(C(=O)OC(C)(C)C)C2)nc2cc(F)ccc21)C1CCCCC1` (centres undefined), 400 nM; for `CCN(C(=O)CCn1c2cc(F)ccc2nc1[C@H]1CC[C@H](CC)CC1)C1CCCCC1`, 20 nM. For `CCN(C(=O)CCn1c2cc(C[C@H]3CCOC3)ccc2nc1[C@H]1CC[C@H](CC)CC1)C1CCCCC1` the value was 380 nM; for `CCN(C(=O)CCn1c2ccc(Br)cc2nc1[C@H]1CC[C@H](CC)CC1)C1CCCCC1`, 10 nM. Consider `CCN(C(=O)CCn1c(C2CCCN(C(=O)OC(C)(C)C)C2)nc2cc(F)ccc21)C1CCCCC1` (centres undefined), for which the concentration for half-maximal inhibition (IC50) was 60 nM and 120 nM.

In the case of `CCCOC(=O)N1CCCC(c2nc3ccccc3n2CCC(=O)N(CC)C2CCCCC2)C1` (centres undefined), the IC50 is 150 nM. Consider `CCN(C(=O)CCn1c(-c2ccc(OCC(F)(F)F)cc2)nc2ccccc21)C1CCCCC1`, for which the IC50 was 40 nM. For `CC(C)(C)OC(=O)NCC1CCC(c2nc3ccccc3n2CCC(=O)NC2C[C@H]3CC[C@]2(C)C3(C)C)CC1` (some centres undefined) the value was 1350 nM; for `CCN(C(=O)CCn1c2cc(CO)ccc2nc1[C@H]1CC[C@H](CC)CC1)C1CCCCC1`, 120 nM.

Values taken from ChEMBL document CHEMBL5728747, “Benzimidazoles and indoles as taro inhibitors” (2021).
